Values after ≈ are worked out from the molar mass of the structure shown. Read-outs that look alike come from different tables or passages of the source. Positions of bridges follow the written chain, without caps; N, C: chain ends. Residues, ends and D or L forms follow the SMILES beside them.
Experiments:
[1] = system: Staphylococcus aureus MTCC 9542; assay type: cell-based; details: lowest peptide concentration required to kill entire bacteria, 24 hrs, NA = not active up to the highest concentration tested
Description: (§2) Antimicrobial activity: Broth dilution method [39] was used to assess the antimicrobial activity of the peptides. Bacterial strains used for in vitro antibacterial assay were Staphylococcus aureus (MTCC 9542), Bacillus subtilis (MTCC 14416), Bacillus coagulans (ATCC 7050), Methicillin-resistant Staphylococcus aureus (MRSA) (ATCC 43300), Streptococcus mutans (MTCC 497), Streptococcus gordonii (MTCC 2695), Vibrio cholerae (MCV09), Escherichia coli (ATCC 25922), Vancomycin-resistant enterococcus (VRE) (ATCC 29212) and gram-negative fish pathogens Aeromonas hydrophila (ATCC 7966) and Aeromonas sobria (ATCC 43979). Bacterial cultures were grown in Muller Hinton broth (MHB) (Hi-media) by overnight incubation at 37° C. with constant shaking. Microbial cultures having 10^6 CFU/ml were made from OD600: 0.6 cultures. 400 μM stock solutions of peptides were prepared in autoclaved double distilled water and diluted in MHB to make concentrations ranging from 0.7 to 100 μM. Bacterial inoculum without peptide was used as the negative control.

Vibrio cholerae MCV09 = assay type: cell-based; details: NA = not active up to the highest concentration tested
Description: as §2

[2] = system: Streptococcus mutans MTCC 497; assay type: cell-based; details: NA = not active up to the highest concentration tested
Description: as §2

[3] = system: V. cholerae cells (MCV09); assay: Atomic Force Microscopy of surface morphology; assay type: cell-based, Vibrio cholerae; details: MIC, 15 min
Protocol: Visualizing the changes in surface morphology of bacteria: Atomic Force Microscopy. This was incorporated to get more insights into the mechanism of action of the peptides and to confirm the results obtained from SEM. V. cholerae cells (MCV09) were grown in MHB at 37° C., washed, and suspended in sodium phosphate buffer (10 mM, pH: 7.4) (OD600-0.06). Diluted bacteria were incubated with the MICs of B1/1 CONH2 and B1/2 CONH2 for 15 min. The control sample was prepared without the peptides. Samples were prepared by drop casting 20 μL of a solution on the freshly cleaved mica surface and dried under air. AFM analyses were carried out on Multimode SPM (Veeco Nanoscope V). Imaging was done under ambient conditions in tapping mode. The probe used for imaging was antimony doped silicon cantilever with a resonant frequency of 300 kHz and a spring constant of 40 Nm^−1.

[4] = system: Bacillus coagulans ATCC 7050; assay type: cell-based; details: lowest concentration killing entire bacteria, 24 hrs
Description: as §2

E .coli. ATCC 25922 = assay type: cell-based, Escherichia coli
Description: as §2

human erythrocytes = assay type: cell-based; details: 60 min
Protocol: Hemolytic Activity: Hemolytic assay was carried out as previously described. Briefly, 10% (v/v) suspensions of fresh human erythrocytes in phosphate buffered saline (pH 7.2) were incubated with different concentrations (100 μM-0.7 μM) of B1/1 COOH & B1/2 COOH, B1/1 CONH2 & B1/2 CONH2 and cyclic B1/1 CONH2 & cyclic B1/2 CONH2 and incubated at 3^7° C. for 60 min. The cells were centrifuged (3000×g) for 5 min, and absorbance of the supernatant was measured at 595 nm. Hemolysis caused by 10% Triton X-100 was taken as positive control. Percentage hemolysis was calculated by measuring the mean amount of hemoglobin released as a result of lysis of erythrocyte from three independent experiments.

[5] = system: Bacillus subtilis MTCC 14416; assay type: cell-based; details: lowest concentration killing entire bacteria, 24 hrs
Description: as §2

[6] = system: Aeromonas sobria ATCC 43979; assay type: cell-based; details: Aeromonas sobria ATCC 43979 (fish pathogen); NA = not active up to the highest concentration tested
Description: as §2

S. aureus (MTCC 9542) = assay: SYTOX green uptake, confocal imaging of membrane permeation; assay type: cell-based, Staphylococcus aureus; details: MIC concentration, 10 min, CLSM
Protocol: (§1) Imaging the bacterial membrane permeation by the amidated peptides. In order to find out the membrane damage by the peptides, if any, we used SYTOX green uptake assay. MIC concentrations of B1/1 CONH2 and B1/2 CONH2 were prepared in sodium phosphate buffer (10 mM, pH: 7.4). Overnight cultures of S. aureus (MTCC 9542) and V. cholerae (MCV09) were re-inoculated in fresh MHB to attain an OD600-0.6. The bacterial suspension was centrifuged (3000×g) for 5 min and the pellet was washed twice with the sodium phosphate buffer (10 mM, pH: 7.4). The pellet was resuspended in the same buffer to an OD600-0.06. Diluted culture was incubated with the peptides for 10 min at 37° C. 100 μl suspensions were poured on to poly-L-lysine coated glass slides and incubated at 37° c. for 30 minutes. The glass slides were washed twice in the same buffer to remove unattached cells. After washing 50 μl of DAPI (10 μg/ml) was smeared on the glass slide and incubated for 30 minutes at 37° C. The slides were washed twice with the buffer and SYTOX green (0.1 μM) was smeared and incubated for 15 minutes at room temperature, washed twice and dried. A drop of glycerol was placed on the slides, mounted with a cover slip and sealed. Controls were run in the presence of peptide solvents. The slides were subjected to confocal laser scanning microscopy (CLSM).

MRSA ATCC 43300 = assay type: cell-based, Methicillin-resistant Staphylococcus aureus; details: lowest concentration killing entire bacteria, 24 hrs
Description: as §2

VRE ATCC 29212 = details: lowest concentration killing entire bacteria, 24 hrs
Description: as §2

V. cholerae (MCV09) = assay: SYTOX green uptake, confocal imaging of membrane permeation; assay type: cell-based, Vibrio cholerae; details: MIC concentration, 10 min, CLSM
Protocol: as §1

[7] = system: Streptococcus gordonii MTCC 2695; assay type: cell-based; details: NA = not active up to the highest concentration tested
Description: as §2

[8] = system: Aeromonas hydrophilia ATCC 7966; assay type: cell-based, Aeromonas hydrophila; details: Aeromonas hydrophilia ATCC 7966 (fish pathogen); NA = not active up to the highest concentration tested
Description: as §2

gram-negative bacteria = assay: MIC range over the tested gram-negative bacteria; assay type: cell-based
Description: as §2

[9] = at the peptide's MIC for Aeromonas sobria ATCC 43979 (MIC in parenthesis)
[10] = at the peptide's MIC for Staphylococcus aureus MTCC 9542 (MIC in parenthesis)
[11] = at the peptide's MIC for Vibrio cholerae MCV09 (MIC in parenthesis)

SMILES | MIC [1] [µM] | MIC (Vibrio cholerae MCV09) [µM] | MIC [2] [µM] | Changes in surface morphology (AFM) [3] | MIC [4] [µM] | MIC (E .coli. ATCC 25922) [µM] | Percentage hemolysis at MIC (human erythrocytes; [9]) [%] | Percentage hemolysis at MIC (human erythrocytes; [10]) [%] | Percentage hemolysis at MIC (human erythrocytes; [11]) [%] | MIC [5] [µM] | MIC [6] [µM] | SYTOX green fluorescence signal (membrane permeabilization) (S. aureus (MTCC 9542)) | MIC (MRSA ATCC 43300) [µM] | MIC (VRE ATCC 29212) [µM] | SYTOX green fluorescence signal (membrane permeabilization) (V. cholerae (MCV09)) | MIC [7] [µM] | MIC [8] [µM] | Activity against gram-negative bacteria (MIC range) (gram-negative bacteria)
CC[C@H](C)[C@H](NC(=O)CNC(=O)[C@@H]1CCCN1C(=O)[C@H](Cc1ccccc1)NC(=O)[C@@H](N)Cc1ccccc1)C(=O)N[C@H](C(=O)N[C@@H](CCCCN)C(=O)N[C@H](C(=O)N[C@@H](C)C(=O)N[C@@H](CO)C(=O)N[C@@H](C)C(=O)N[C@H](C(=O)N[C@@H](CC(C)C)C(=O)N1CCC[C@H]1C(=O)N[C@H](C(=O)N[C@@H](C)C(=O)N[C@H](C(=O)N[C@@H](CS)C(=O)N[C@@H](C)C(=O)N[C@H](C(=O)N[C@H](C(=O)N[C@@H](CCCCN)C(=O)N[C@@H](CCCNC(=N)N)C(=O)N[C@@H](CS)C(N)=O)[C@@H](C)O)[C@@H](C)CC)[C@@H](C)CC)[C@@H](C)O)[C@@H](C)CC)C(C)C)[C@@H](C)CC [B1/1 CONH2] (H-FFPGIIKVASAILPTAICAITKRC-NH2; N-terminus assumed) | 1.5 (≈ 3.8 µg/mL) | 10.3 (≈ 26.1 µg/mL) | 36 (≈ 91.2 µg/mL) | changes in surface morphology and aggregation | 8.2 (≈ 20.8 µg/mL) | 29 (≈ 73.5 µg/mL) | 25 | 10 | 20 | 36.3 (≈ 92 µg/mL) | 12.5 (≈ 31.7 µg/mL) | marked increase in fluorescence signal | 2.5 (≈ 6.33 µg/mL) | 25 (≈ 63.3 µg/mL) | marked increase in fluorescence signal | 19 (≈ 48.1 µg/mL) | 100 (≈ 253 µg/mL) | 
CC[C@H](C)[C@H](NC(=O)CNC(=O)[C@@H]1CCCN1C(=O)[C@H](Cc1ccccc1)NC(=O)[C@@H](N)Cc1ccccc1)C(=O)N[C@H](C(=O)N[C@@H](CCCCN)C(=O)N[C@H](C(=O)N[C@@H](C)C(=O)N[C@@H](CO)C(=O)N[C@@H](C)C(=O)N[C@H](C(=O)N[C@@H](CC(C)C)C(=O)N1CCC[C@H]1C(=O)N[C@H](C(=O)N[C@@H](C)C(=O)N[C@H](C(=O)N[C@@H](CS)C(=O)N[C@@H](C)C(=O)N[C@H](C(=O)N[C@H](C(=O)N[C@@H](CCCCN)C(=O)N[C@@H](CCCNC(=N)N)C(=O)N[C@@H](CS)C(=O)O)[C@@H](C)O)[C@@H](C)CC)[C@@H](C)CC)[C@@H](C)O)[C@@H](C)CC)C(C)C)[C@@H](C)CC [B1/1 COOH] (H-FFPGIIKVASAILPTAICAITKRC-OH; N-terminus assumed) | 9.5 (≈ 24.1 µg/mL) |  |  |  | 25 (≈ 63.4 µg/mL) |  |  | 20 |  | 98 (≈ 248 µg/mL) |  |  | 25 (≈ 63.4 µg/mL) | 50 (≈ 127 µg/mL) |  |  |  | not with gram-negative bacteria
CC[C@H](C)[C@H](NC(=O)CNC(=O)[C@@H]1CCCN1C(=O)[C@H](Cc1ccccc1)NC(=O)[C@@H](N)Cc1ccccc1)C(=O)N[C@H](C(=O)N[C@@H](CCCCN)C(=O)N[C@H](C(=O)N[C@@H](C)C(=O)NCC(=O)N[C@@H](C)C(=O)N[C@H](C(=O)N[C@@H](CC(C)C)C(=O)N1CCC[C@H]1C(=O)N[C@H](C(=O)N[C@@H](C)C(=O)N[C@H](C(=O)N[C@@H](CS)C(=O)N[C@@H](C)C(=O)N[C@H](C(=O)N[C@H](C(=O)N[C@@H](CCCCN)C(=O)N[C@@H](CCCNC(=N)N)C(=O)N[C@@H](CS)C(N)=O)[C@@H](C)O)[C@@H](C)CC)[C@@H](C)CC)[C@@H](C)O)[C@@H](C)CC)C(C)C)[C@@H](C)CC [B1/2 CONH2] (H-FFPGIIKVAGAILPTAICAITKRC-NH2; N-terminus assumed) | 2.5 (≈ 6.26 µg/mL) | 12 (≈ 30 µg/mL) | 40 (≈ 100 µg/mL) | changes in surface morphology and aggregation | 12.5 (≈ 31.3 µg/mL) | 36.2 (≈ 90.6 µg/mL) | 25 | 8 | 25 | 30 (≈ 75.1 µg/mL) | 12.5 (≈ 31.3 µg/mL) | marked increase in fluorescence signal | 5 (≈ 12.5 µg/mL) | 25 (≈ 62.6 µg/mL) | marked increase in fluorescence signal | 25 (≈ 62.6 µg/mL) | 100 (≈ 250 µg/mL) | 
CC[C@H](C)[C@H](NC(=O)CNC(=O)[C@@H]1CCCN1C(=O)[C@H](Cc1ccccc1)NC(=O)[C@@H](N)Cc1ccccc1)C(=O)N[C@H](C(=O)N[C@@H](CCCCN)C(=O)N[C@H](C(=O)N[C@@H](C)C(=O)N[C@@H](CO)C(=O)N[C@@H](C)C(=O)N[C@H](C(=O)N[C@@H](CC(C)C)C(=O)N1CCC[C@H]1C(=O)N[C@H](C(=O)N[C@@H](C)C(=O)N[C@H](C(=O)N[C@H]1CSSC[C@@H](C(N)=O)NC(=O)[C@H](CCCNC(=N)N)NC(=O)[C@H](CCCCN)NC(=O)[C@H]([C@@H](C)O)NC(=O)[C@H]([C@@H](C)CC)NC(=O)[C@H](C)NC1=O)[C@@H](C)CC)[C@@H](C)O)[C@@H](C)CC)C(C)C)[C@@H](C)CC [Cyclic B1/1 CONH2] (H-FFPGIIKVASAILPTAICAITKRC-NH2; disulfide 18-24; N-terminus assumed) | 3 (≈ 7.59 µg/mL) | 12.5 (≈ 31.6 µg/mL) | 40 (≈ 101 µg/mL) |  | 25 (≈ 63.3 µg/mL) | 50 (≈ 127 µg/mL) | 10 | 11 | 20 | 45 (≈ 114 µg/mL) | 3 (≈ 7.59 µg/mL) |  | 5 (≈ 12.7 µg/mL) | 25 (≈ 63.3 µg/mL) |  | 25 (≈ 63.3 µg/mL) | 100 (≈ 253 µg/mL) | 
CC[C@H](C)[C@H](NC(=O)CNC(=O)[C@@H]1CCCN1C(=O)[C@H](Cc1ccccc1)NC(=O)[C@@H](N)Cc1ccccc1)C(=O)N[C@H](C(=O)N[C@@H](CCCCN)C(=O)N[C@H](C(=O)N[C@@H](C)C(=O)NCC(=O)N[C@@H](C)C(=O)N[C@H](C(=O)N[C@@H](CC(C)C)C(=O)N1CCC[C@H]1C(=O)N[C@H](C(=O)N[C@@H](C)C(=O)N[C@H](C(=O)N[C@H]1CSSC[C@@H](C(N)=O)NC(=O)[C@H](CCCNC(=N)N)NC(=O)[C@H](CCCCN)NC(=O)[C@H]([C@@H](C)O)NC(=O)[C@H]([C@@H](C)CC)NC(=O)[C@H](C)NC1=O)[C@@H](C)CC)[C@@H](C)O)[C@@H](C)CC)C(C)C)[C@@H](C)CC [Cyclic B1/2 CONH2] (H-FFPGIIKVAGAILPTAICAITKRC-NH2; disulfide 18-24; N-terminus assumed) | 3 (≈ 7.5 µg/mL) | 12.5 (≈ 31.3 µg/mL) | 40 (≈ 100 µg/mL) |  | 29 (≈ 72.5 µg/mL) | 50 (≈ 125 µg/mL) | 12 | 15 | 25 | 35 (≈ 87.5 µg/mL) | 3 (≈ 7.5 µg/mL) |  | 7 (≈ 17.5 µg/mL) | 30 (≈ 75 µg/mL) |  | 25 (≈ 62.5 µg/mL) | 50 (≈ 125 µg/mL) | 

Reference: patent publication US20190298796A1, “Therapeutic Compositions from the Brevinin-1 Family of Peptides and Uses Thereof” (priority 2016, published 2019)
